Source: patent US20070072831A1, “Integrase inhibitor compounds” (GILEAD SCIENCES, INC., priority 2005, published 2007)

Legend:
HIV-IIIb = test: Antiviral assay in MT-4 cells infected with HIV-IIIb; format: cell-based; conditions: MT4, 120 h; MT-4 cells, HIV-IIIb, 5 days; read-out: EC50 Range MT-4
Procedure: See: Wolfe, etal J. Virol.
Antiviral Assays in MT2 and MT4 Cells
For the antiviral assay utilizing MT-2 cells, 50 μl of 2× test concentration of 5-fold serially diluted compound in culture medium with 10% FBS was added to each well of a 96-well plate (9 concentrations) in triplicate. MT-2 cells were infected with HIV-IIIb at a multiplicity of infection (m.o.i) of 0.01 for 3 hours. Fifty microliters of infected cell suspension in culture medium with 10% FBS (˜1.5×10^4 cells) was then added to each well containing 50 μl of diluted compound. The plates were then incubated at 37° C. for 5 days. For the antiviral assay utilizing MT-4 cells, 20 μl of 2× test concentration of 5-fold serially diluted compound in culture medium with 10% FBS was added to each well of a 384-well plate (7 concentrations) in triplicate. MT-4 cells were next mixed with HIV-IIIb at an m.o.i. of 0.1 and 20 μl of virus/cell mixture (˜2000 cells) was immediately added to each well containing 20 μl of diluted compound. The plates were then incubated at 37° C. for 5 days. After 5 days of incubation, 100 μl of CellTiter-Glo™ Reagent (catalog # G7571, Promega Biosciences, Inc., Madison, Wis.) was added to each well containing MT-2 cells and 40 μl to each well containing MT-4 cells. Cell lysis was carried out by incubating at room temperature for 10 min and then chemiluminescence was read.

HIV integrase = HIV integrase (Human immunodeficiency virus type 1 group M subtype B, UniProt P04585); test: biochemical
Procedure: Representative compounds of the invention were tested for biological activity by methods including anti-HIV assay, measuring inhibition of HIV-integrase strand transfer catalysis, and cytotoxicity.
HIV Integrase Assay (IC50 Determination)
The HIV Integrase assay is carried out in Reacti-Bind High Binding Capacity Streptavidin coated plates (Pierce # 15502) in 100 μl reactions. The wells of the plate are rinsed once with PBS. Each well is then coated at room temperature for 1 h with 100 μl of 0.14 μM Donor DNA with the following sequence:
After coating, the plate was washed twice with PBS. 3′processing of the Donor DNA is started by adding 80 μl of Integrase/buffer mixture (25 mM HEPES, pH 7.3, 12.5 mM DTT, 93.75 mM NaCl, 12.5 mM MgCl2, 1.25% Glycerol, 0.3125 uM integrase) to each well. 3′processing is allowed to proceed for 30 min at 37° C., after which, 10 μl of test compound and 10 μl of 2.5 uM DIG-labeled Target DNA with the following sequence:
are added to each well to allow strand transfer to proceed for 30 min at 37° C. The plate is then washed three times with 2×SSC for 5 min and rinsed once with PBS. For detection of integrated product, 100 μl of a 1/2000 dilution of HRP-conjugated anti-DIG antibody (Pierce #31468) are added to each well and incubated for 1 hour. The plate was then washed three times for 5 min each, with 0.05% Tween-20 in PBS. For signal development and amplification, 100 μl of SuperSignal ELISA Femto Substrate (Pierce #37075) are added to each well. Chemiluminescence (in relative light units) is read immediately at 425 nm in the SPECTRAmax GEMINI Microplate Spectrophotometer using the end point mode at 5 sec per well.
For IC50 determinations, eight concentrations of test compounds in a 1/2.2 dilution series are used.

| SMILES | EC50 (HIV-IIIb) | IC50 (HIV integrase) |
| --- | --- | --- |
| CN(c1c2c(c(O)c3ncccc13)C(=O)N(Cc1ccc(F)cc1)C2)S(=O)(=O)CCCC#N [Compound 48, 3-cyano-N-(7-(4-fluorobenzyl)-9-hydroxy-8-oxo-7,8-dihydro-6H-pyrrolo[3,4-g]quinolin-5-yl)-N-methylpropane-1-sulfonamide] | < 60 nM |  |
| CN1CCCN(c2c3c(c(O)c4ncccc24)C(=O)N(Cc2ccc(F)cc2)C3)S1(=O)=O [Compound 218] | < 60 nM | < 60 nM |
| Nc1c2c(c(O)c3ncccc13)C(=O)N(Cc1ccc(F)cc1)C2=O [Compound 8, 5-amino-7-(4-fluorobenzyl)-9-hydroxy-6H-pyrrolo[3,4-g]quinoline-6,8(7H)-dione] | > 1000 nM | 60 to 1000 nM |
| CN(c1c2c(c(O)c3ncccc13)C(=O)N(Cc1ccc(F)cc1)C2)S(=O)(=O)CCN1CCOCC1 [Compound 163, N-(7-(4-fluorobenzyl)-9-hydroxy-8-oxo-7,8-dihydro-6H-pyrrolo[3,4-g]quinolin-5-yl)-N-methyl-2-morpholinoethanesulfonamide] | < 60 nM | < 60 nM |
| CC(C)C(=O)Nc1c2c(c(O)c3ncccc13)C(=O)N(Cc1ccc(F)cc1)C2 [Compound 67, N-(7-(4-fluorobenzyl)-9-hydroxy-8-oxo-7,8-dihydro-6H-pyrrolo[3,4-g]quinolin-5-yl)isobutyramide] | < 60 nM | < 60 nM |
| CN(C)S(=O)(=O)N(C)c1c2c(c(O)c3ncccc13)C(=O)N(Cc1ccc(F)cc1)C2 [Compound 38, N-(7-(4-fluorobenzyl)-9-hydroxy-8-oxo-7,8-dihydro-6H-pyrrolo[3,4-g]quinolin-5-yl)-N,N′,N′-trimethylsulfamide] | < 60 nM | 60 to 1000 nM |
| CCN(CC)CCS(=O)(=O)N(C)c1c2c(c(O)c3ncccc13)C(=O)N(Cc1ccc(F)cc1)C2 [Compound 161, 2-(diethylamino)-N-(7-(4-fluorobenzyl)-9-hydroxy-8-oxo-7,8-dihydro-6H-pyrrolo[3,4-g]quinolin-5-yl)-N-methylethanesulfonamide] | < 60 nM | 60 to 1000 nM |
| CN(c1c2c(c(O)c3ncccc13)C(=O)N(Cc1cccc(Cl)c1F)C2)S(C)(=O)=O [Compound 177, N-(7-(3-chloro-2-fluorobenzyl)-9-hydroxy-8-oxo-7,8-dihydro-6H-pyrrolo[3,4-g]quinolin-5-yl)-N-methylmethanesulfonamide] | < 60 nM | 60 to 1000 nM |
| CN(c1c2c(c(O)c3ncccc13)C(=O)N(Cc1ccc(F)cc1)C2=O)S(C)(=O)=O [Compound 152, N-(7-(4-fluorobenzyl)-9-hydroxy-6,8-dioxo-7,8-dihydro-6H-pyrrolo[3,4-g]quinolin-5-yl)-N-methylmethanesulfonamide] | > 1000 nM | < 60 nM |
| CN(c1c2c(c(O)c3ncccc13)C(=O)N(Cc1ccc(F)cc1S(C)(=O)=O)C2)S(C)(=O)=O [Compound 106, N-(7-(4-fluoro-2-(methylsulfonyl)benzyl)-9-hydroxy-8-oxo-7,8-dihydro-6H-pyrrolo[3,4-g]quinolin-5-yl)-N-methylmethanesulfonamide] | < 60 nM | 60 to 1000 nM |
| CN(c1c2c(c(O)c3ncccc13)C(=O)N(Cc1ccc(Cl)cc1)C2)S(C)(=O)=O [Compound 183, N-(7-(4-chlorobenzyl)-9-hydroxy-8-oxo-7,8-dihydro-6H-pyrrolo[3,4-g]quinolin-5-yl)-N-methylmethanesulfonamide] | < 60 nM | 60 to 1000 nM |
| CN(c1c2c(c(O)c3ncccc13)C(=O)N(Cc1ccc(F)c(Cl)c1)C2)S(C)(=O)=O [Compound 181, N-(7-(3-chloro-4-fluorobenzyl)-9-hydroxy-8-oxo-7,8-dihydro-6H-pyrrolo[3,4-g]quinolin-5-yl)-N-methylmethanesulfonamide] | < 60 nM | < 60 nM |
| CS(=O)(=O)Nc1c2c(c(O)c3ncccc13)C(=O)N(Cc1ccc(F)cc1)C2 [Compound 125, N-(7-(4-fluorobenzyl)-9-hydroxy-8-oxo-7,8-dihydro-6H-pyrrolo[3,4-g]quinolin-5-yl)methanesulfonamide] | 60 to 1000 nM | < 60 nM |
| CN(c1c2c(c(O)c3ncccc13)C(=O)N(Cc1ccc(F)cc1)C2)S(=O)(=O)CCN1CCCCC1 [Compound 162, N-(7-(4-fluorobenzyl)-9-hydroxy-8-oxo-7,8-dihydro-6H-pyrrolo[3,4-g]quinolin-5-yl)-N-methyl-2-(piperidin-1-yl)ethanesulfonamide] | 60 to 1000 nM | 60 to 1000 nM |
| CN(c1c2c(c(O)c3ncccc13)C(=O)N(Cc1ccc(F)cc1N)C2)S(C)(=O)=O [Compound 103, N-(7-(2-amino-4-fluorobenzyl)-9-hydroxy-8-oxo-7,8-dihydro-6H-pyrrolo[3,4-g]quinolin-5-yl)-N-methylmethanesulfonamide] | < 60 nM | < 60 nM |
| CN(c1c2c(c(O)c3ncccc13)C(=O)N(Cc1ccc(F)cc1)C2O)S(C)(=O)=O (single isomer, unassigned) [Compound 166, N-(7-(4-fluorobenzyl)-6,9-dihydroxy-8-oxo-7,8-dihydro-6H-pyrrolo[3,4-g]quinolin-5-yl)-N-methylmethanesulfonamide] | < 60 nM | < 60 nM |
| COc1ccc(CN2Cc3c(c(O)c4ncccc4c3N(C)S(C)(=O)=O)C2=O)c(OC)c1 [Compound 143, N-(7-(2,4-dimethoxybenzyl)-9-hydroxy-8-oxo-7,8-dihydro-6H-pyrrolo[3,4-g]quinolin-5-yl)-N-methylmethanesulfonamide] | 60 to 1000 nM | 60 to 1000 nM |
| CC(=O)Nc1nc(C)c(S(=O)(=O)N(C)c2c3c(c(O)c4ncccc24)C(=O)N(Cc2ccc(F)cc2)C3)s1 [Compound 160, N-(5-(N-(7-(4-fluorobenzyl)-9-hydroxy-8-oxo-7,8-dihydro-6H-pyrrolo[3,4-g]quinolin-5-yl)-N-methylsulfamoyl)-4-methylthiazol-2-yl)acetamide] | 60 to 1000 nM | 60 to 1000 nM |
| CN(c1c2c(c(O)c3ncccc13)C(=O)N(Cc1ccc(F)cc1)C2)S(=O)(=O)CCCN1CCOCC1 [Compound 46, N-(7-(4-fluorobenzyl)-9-hydroxy-8-oxo-7,8-dihydro-6H-pyrrolo[3,4-g]quinolin-5-yl)-N-methyl-3-morpholinopropane-1-sulfonamide] | < 60 nM |  |
| CN(c1c2c(c(O)c3ncccc13)C(=O)N(Cc1ccc(F)nc1)C2)S(C)(=O)=O [Compound 97, N-(7-((6-fluoropyridin-3-yl)methyl)-9-hydroxy-8-oxo-7,8-dihydro-6H-pyrrolo[3,4-g]quinolin-5-yl)-N-methylmethanesulfonamide] | 60 to 1000 nM | 60 to 1000 nM |
| CN(c1c2c(c(O)c3ncccc13)C(=O)N(Cc1ccc(F)cc1)C2)S(=O)(=O)CCN1CCNCC1 [Compound 164, N-(7-(4-fluorobenzyl)-9-hydroxy-8-oxo-7,8-dihydro-6H-pyrrolo[3,4-g]quinolin-5-yl)-N-methyl-2-(piperazin-1-yl)ethanesulfonamide] | 60 to 1000 nM | 60 to 1000 nM |
| CN(C)C(=O)c1cc(F)ccc1CN1Cc2c(c(O)c3ncccc3c2N(C)S(C)(=O)=O)C1=O [Compound 90, 5-fluoro-2-((9-hydroxy-5-(N-methylmethylsulfonamido)-8-oxo-6H-pyrrolo[3,4-g]quinolin-7(8H)-yl)methyl)-N,N-dimethylbenzamide] | < 60 nM | 60 to 1000 nM |
| CN(c1c2c(c(O)c3ncccc13)C(=O)N(Cc1ccc(Cl)cc1F)C2)S(C)(=O)=O [Compound 189, N-(7-(4-chloro-2-fluorobenzyl)-9-hydroxy-8-oxo-7,8-dihydro-6H-pyrrolo[3,4-g]quinolin-5-yl)-N-methylmethanesulfonamide] | < 60 nM | 60 to 1000 nM |
| CN(c1c2c(c(O)c3ncccc13)C(=O)N(Cc1ccc(F)cc1S(=O)(=O)N(C)C)C2)S(C)(=O)=O [Compound 109, 5-fluoro-2-((9-(hydroxy)-5-(N-methylmethylsulfonamido)-8-oxo-6H-pyrrolo[3,4-g]quinolin-7(8H)-yl)methyl)-N,N-dimethylbenzenesulfonamide] | < 60 nM | 60 to 1000 nM |
| O=C1c2c(c(N3CCCNS3(=O)=O)c3cccnc3c2O)CN1Cc1ccc(F)cc1 [Compound 215] | < 60 nM | 60 to 1000 nM |
| CN(c1c2c(c(O)c3ncccc13)C(=O)N(Cc1ccc(F)cc1)C2(C)C)S(C)(=O)=O [Compound 71, N-(7-(4-fluorobenzyl)-9-hydroxy-6,6-dimethyl-8-oxo-7,8-dihydro-6H-pyrrolo[3,4-g]quinolin-5-yl)-N-methylmethanesulfonamide] | < 60 nM | 60 to 1000 nM |
| CCNS(=O)(=O)N(CC)c1c2c(c(O)c3ncccc13)C(=O)N(Cc1ccc(F)cc1)C2 [Compound 232] | < 60 nM |  |
| CN(c1c2c(c(O)c3ncccc13)C(=O)N(Cc1ccc(F)cc1)C2)S(=O)(=O)CCCn1ccnc1 [Compound 49, N-(7-(4-fluorobenzyl)-9-hydroxy-8-oxo-7,8-dihydro-6H-pyrrolo[3,4-g]quinolin-5-yl)-3-(1 H-imidazol-1-yl)-N-methylpropane-1-sulfonamide] | < 60 nM |  |
